Consider 20 molecules from patent US9597407B2, “Targeted antimicrobial moieties” (C3 Jian, Inc., priority 2009, dated 2017).

One assay has as its system bacteria. Briefly: Binding of targeting peptides to microorganisms (Table 3). Conditions: microorganism the targeting peptide binds; binding in aqueous buffers that varied with peptide solubility, preferably 1x PBS.
In assay [1] the test system is microorganisms. Briefly: Peptide activities: binding, antimicrobial, growth or phenotype altering (Table 8). The source says:
In certain embodiments, peptides described herein can have multiple activities. Thus for example, a peptide can have both binding/targeting activity and antimicrobial activity. Such peptides can be used, e.g., in a chimeric construct, for any or all of these properties. Thus, for example, a peptide designated “B” in Table 8 can be used as a targeting peptide. If it is also designated G or M it can also be used for antimicrobial activity.

Assay [2] deals with microorganisms. Briefly: Morphology, biofilm and growth disruption by peptides (Table 5). It counts as cell-based. Set-up: key: A: Peptide aggregates; B: Less hyphal formation; Clumps; Diffuse clumps and small polyps; F: Diffuse growth; H: Thin; I: Growth inhibition; Microcolony formation; Rippled; Small polyps; Thick; W: Halo formation on top, microlonies on bottom. The text has this: In certain embodiments peptides that induce alterations in phenotype or other biological activities can also be used as antimicrobial effector moieties.

Entries after “also recorded” stand apart in the source; their conditions may differ. Ends that are not written are not given here.

As to “PF-005 (chain 1 MESIFKIKLMNGICRSENMNMKKKNKGEKI; chain 2 MESIFKIKLMNGICRSENMNMKKKNKGEKI; Peptide with targeting and/or antimicrobial activity)”, the “Target(s)” value in the assay on bacteria is “S. epidermidis and E. coli and MRSA and S. pneumoniae and E. faecalis”. In addition, in the assay on microorganisms [1], the Activities result is recorded as “G B”. Further, the results for the “Organism, effect” value in the assay with microorganisms [2] (B. subtilis) and in the assay with microorganisms [2] (S. pneumoniae) were “B. subtilis (C)” and “S. pneumoniae (H)”, respectively.

In the case of “PF-011 (MFCYYKQHKGDNFSIEEVKNIIADNEMKVN; Peptide with targeting and/or antimicrobial activity)”, the “Target(s)” value in the assay on bacteria was “M. luteus; also recorded: E. coli; also recorded: P. aeruginosa; also recorded: S. pneumoniae; also recorded: C. jeikeium”. Further, the Activities result in the assay with microorganisms [1] is reported as “G B”. Moreover, the “Organism, effect” value is listed as “C. jeikeium (C)” in the assay on microorganisms [2] (C. jeikeium) and “MRSA (R)” in the assay on microorganisms [2] (MRSA).

In the case of “PF-015 (SIDKRNLYNLKYYE; Peptide with targeting and/or antimicrobial activity)”, the “Target(s)” value with bacteria is recorded as “E. faecalis; also recorded: C. jeikeium”. For the same molecule, the Activities entry with microorganisms [1] is given as “G B”. For the same molecule, the “Organism, effect” value in the assay with microorganisms [2] (MRSA) is on record as “MRSA (W)”.

Turning to “PF-475 (MREKVRFTQAFKLFWTNYFNFKGRSRRSEY; Peptide with targeting and/or antimicrobial activity)”, in the assay with microorganisms [1], the Activities entry was “G B”. The “Organism, effect (morphology, biofilm and growth disruption)” value is reported as “C. albicans (B)” with microorganisms [2] (C. albicans); “C. jejuni (R)” in the assay on microorganisms [2] (C. jejuni); “E. faecalis (R)” with microorganisms [2] (E. faecalis); “MRSA (S)” in the assay with microorganisms [2] (MRSA); “S. epidermidis (M)” with microorganisms [2] (S. epidermidis); “S. pneumoniae (R)” with microorganisms [2] (S. pneumoniae).

In the case of “PF-478 (HLFILKSHLKPFPPFRYTYD; Peptide with targeting and/or antimicrobial activity)”, in the assay with microorganisms [1], the Activities entry is listed as “G B”. Also, the “Organism, effect (morphology, biofilm and growth disruption)” value in the assay on microorganisms [2] (E. coli) was “E. coli (C)”; in the assay on microorganisms [2] (MRSA) it was “MRSA (H)”; with microorganisms [2] (S. epidermidis) it was “S. epidermidis (C)”; with microorganisms [2] (S. pneumoniae), “S. pneumoniae (C)”.

Consider “PF-479 (AYILKRREEKNK; Peptide with targeting and/or antimicrobial activity)”, for which, in the assay with microorganisms [1], the Activities entry is on record as “G B”. Besides, the “Organism, effect (morphology, biofilm and growth disruption)” value with microorganisms [2] (S. pneumoniae) is listed as “S. pneumoniae (C)”.

Consider “PF-482 (LVGYVRTSGTVRSYKIN; Peptide with targeting and/or antimicrobial activity)”, for which, in the assay on microorganisms [1], the Activities entry is “G B”. In addition, the “Organism, effect (morphology, biofilm and growth disruption)” value with microorganisms [2] (S. pneumoniae) is “S. pneumoniae (S)”.

For PF-526 (VLLLFIFQPFQKQLL-NH2), the Activities result in the assay with microorganisms [1] is on record as “G B”. Besides, the “Organism, effect (morphology, biofilm and growth disruption)” value in the assay on microorganisms [2] (C. albicans) is listed as “C. albicans (C)”; with microorganisms [2] (E. coli), “E. coli (R)”; with microorganisms [2] (MRSA) it was “MRSA (C)”; in the assay with microorganisms [2] (S. epidermidis), “S. epidermidis (C)”; in the assay on microorganisms [2] (S. pneumoniae) it was “S. pneumoniae (R)”.

As for “PF-537 (LANDYYKKTKKSW; Peptide with targeting and/or antimicrobial activity)”, the Activities entry with microorganisms [1] is recorded as “G B”. Besides, the “Organism, effect (morphology, biofilm and growth disruption)” value with microorganisms [2] (S. pneumoniae) was “S. pneumoniae (C)”.

For “PF-539 (SIILTKKKRRKIPLSIDSQIYKYTFKQ; Peptide with targeting and/or antimicrobial activity)”, the Activities entry in the assay on microorganisms [1] is “G B”. Besides, the “Organism, effect (morphology, biofilm and growth disruption)” value is given as “MRSA (H)” with microorganisms [2] (MRSA) and “S. pneumoniae (A)” in the assay on microorganisms [2] (S. pneumoniae).

For “PF-543 (NILFGIIGFVVAMTAAVIVTAISIAK; Peptide with targeting and/or antimicrobial activity)”, the Activities result with microorganisms [1] is on record as “G B”. In addition, the “Organism, effect (morphology, biofilm and growth disruption)” value in the assay on microorganisms [2] (E. coli) is on record as “E. coli (C)”; in the assay on microorganisms [2] (M. luteus) it was “M. luteus (C)”; in the assay on microorganisms [2] (MRSA), “MRSA (D)”; in the assay with microorganisms [2] (S. epidermidis), “S. epidermidis (D)”; in the assay on microorganisms [2] (S. mutans), “S. mutans (S)”; with microorganisms [2] (S. pneumoniae), “S. pneumoniae (D)”.

“PF-544 (FGEKQMRSWWKVHWFHP; Peptide with targeting and/or antimicrobial activity)”: the Activities result in the assay on microorganisms [1] is reported as “G B”. Besides, the “Organism, effect (morphology, biofilm and growth disruption)” value in the assay with microorganisms [2] (E. faecalis) was “E. faecalis (R)”; in the assay with microorganisms [2] (MRSA), “MRSA (D)”; in the assay on microorganisms [2] (S. epidermidis), “S. epidermidis (D)”; in the assay on microorganisms [2] (S. pneumoniae) it was “S. pneumoniae (M)”.

Take “PF-548 (ARPIADLIHFNSTTVTASGDVYYGPG; Peptide with targeting and/or antimicrobial activity)”: the Activities result in the assay with microorganisms [1] was “G B”. Also, the “Organism, effect (morphology, biofilm and growth disruption)” value in the assay on microorganisms [2] (B. subtilis) was “B. subtilis (C)”; with microorganisms [2] (C. jeikeium) it was “C. jeikeium (R)”; with microorganisms [2] (C. jejuni), “C. jejuni (D)”; in the assay on microorganisms [2] (M. luteus), “M. luteus (A)”; in the assay with microorganisms [2] (MRSA), “MRSA (M)”; in the assay on microorganisms [2] (S. epidermidis), “S. epidermidis (M)”. The “Organism, effect (morphology, biofilm and growth disruption)” value in the assay with microorganisms [2] (S. pneumoniae) is “S. pneumoniae (D)”.

With “PF-556 (SLQIRMNTLTAAKASIEAA; Peptide with targeting and/or antimicrobial activity)”, in the assay with microorganisms [1], the Activities result is reported as “G B”. Also, the “Organism, effect (morphology, biofilm and growth disruption)” value in the assay on microorganisms [2] (B. subtilis) is listed as “B. subtilis (C)”; in the assay on microorganisms [2] (C. jeikeium), “C. jeikeium (D)”; in the assay on microorganisms [2] (C. jejuni) it was “C. jejuni (R)”; in the assay with microorganisms [2] (E. faecalis) it was “E. faecalis (A)”; in the assay with microorganisms [2] (M. luteus) it was “M. luteus (A)”; in the assay on microorganisms [2] (MRSA) it was “MRSA (M)”. The “Organism, effect (morphology, biofilm and growth disruption)” value in the assay with microorganisms [2] (S. epidermidis) is reported as “S. epidermidis (A)”; in the assay with microorganisms [2] (S. pneumoniae) it was “S. pneumoniae (D)”.

On to “PF-562 (TPEQWLERSTVVVTGLLNRK; Peptide with targeting and/or antimicrobial activity)”, for which the Activities entry in the assay with microorganisms [1] was “G B”. In addition, the “Organism, effect (morphology, biofilm and growth disruption)” value in the assay with microorganisms [2] (C. jejuni) is recorded as “C. jejuni (R)”; in the assay on microorganisms [2] (M. luteus), “M. luteus (R)”; in the assay on microorganisms [2] (MRSA), “MRSA (M)”; in the assay with microorganisms [2] (S. epidermidis) it was “S. epidermidis (A)”; with microorganisms [2] (S. pneumoniae) it was “S. pneumoniae (D)”.

As for “PF-577 (PFETRESFRVPVIGILGGWDYFMHP; Peptide with targeting and/or antimicrobial activity)”, the Activities result in the assay on microorganisms [1] is on record as “G B”. Further, the “Organism, effect (morphology, biofilm and growth disruption)” value with microorganisms [2] (C. jejuni) was “C. jejuni (R)”; in the assay on microorganisms [2] (E. coli), “E. coli (A)”; in the assay on microorganisms [2] (E. faecalis), “E. faecalis (A)”; in the assay with microorganisms [2] (MRSA), “MRSA (M)”; in the assay on microorganisms [2] (P. aeruginosa), “P. aeruginosa (A)”; with microorganisms [2] (S. epidermidis), “S. epidermidis (A)”. Besides, in the assay with microorganisms [2] (S. pneumoniae), the “Organism, effect (morphology, biofilm and growth disruption)” value is “S. pneumoniae (R)”.

As for “PF-578 (QKANLRIGFTYTSDSNVCNLTFALLGSK; Peptide with targeting and/or antimicrobial activity)”, the Activities entry in the assay on microorganisms [1] is “G B”. For the same molecule, the “Organism, effect (morphology, biofilm and growth disruption)” value in the assay with microorganisms [2] (E. coli) is on record as “E. coli (C)”; in the assay with microorganisms [2] (M. luteus), “M. luteus (C)”; with microorganisms [2] (MRSA), “MRSA (C)”; in the assay with microorganisms [2] (P. mirabilis) it was “P. mirabilis (C)”; in the assay on microorganisms [2] (S. epidermidis) it was “S. epidermidis (D)”; in the assay on microorganisms [2] (S. mutans), “S. mutans (D)”. For the same molecule, the “Organism, effect (morphology, biofilm and growth disruption)” value in the assay with microorganisms [2] (S. pneumoniae) is given as “S. pneumoniae (D)”.

Take “PF-603 (IDKLKKMNLQKLSYEVRISQDGKSIYARIK; Peptide with targeting and/or antimicrobial activity)”: the Activities entry in the assay on microorganisms [1] is “G B”. Further, the “Organism, effect (morphology, biofilm and growth disruption)” value with microorganisms [2] (E. coli) is “E. coli (M)”; in the assay on microorganisms [2] (M. luteus), “M. luteus (A)”; in the assay with microorganisms [2] (MRSA), “MRSA (M)”; in the assay with microorganisms [2] (S. epidermidis) it was “S. epidermidis (D)”; with microorganisms [2] (S. pneumoniae) it was “S. pneumoniae (C)”.

In the case of “PF-619 (chain 1 WSRVPGHSDTGWKVWHRW; chain 2 WSRVPGHSDTGWKVWHRW; Peptide with targeting and/or antimicrobial activity)”, the Activities result with microorganisms [1] is given as “G B”. In addition, the “Organism, effect (morphology, biofilm and growth disruption)” value is given as “E. coli (C)” in the assay with microorganisms [2] (E. coli), “MRSA (M)” with microorganisms [2] (MRSA), “S. epidermidis (M)” in the assay with microorganisms [2] (S. epidermidis) and “S. pneumoniae (C)” in the assay on microorganisms [2] (S. pneumoniae).

B1: PF-748 (peptide)
chain 1: FQGFFDVAVNKWWEEHNKAKLWKNVKGKFLEGEGEEEDDE
chain 2: FQGFFDVAVNKWWEEHNKAKLWKNVKGKFLEGEGEEEDDE
modifications: Peptide with targeting and/or antimicrobial activity
Take B1: the Activities entry in the assay on microorganisms [1] is reported as “G B”. Further, the “Organism, effect (morphology, biofilm and growth disruption)” value in the assay on microorganisms [2] (S. pneumoniae) is “S. pneumoniae (H)”.
